# Measurements reported in ChEMBL document CHEMBL1139540, “Replacement of Phe6, Phe7, and Phe11 of D-Trp8-somatostatin-14 with L-pyrazinylalanine. Predicted and observed effects on binding affinities at hSST2 and hSST4. An unexpected effect of the chirality of Trp8 on NMR spectra in methanol” (J Med Chem, 2005).
# Bridge positions count the residues as written; N and C are the ends. Peptide text beside a SMILES is read from it.
# Tests used:
# [1] = target: T1, Somatostatin receptor type 2 (Homo sapiens, UniProt P30874); experiment: Inhibition of human somatostatin receptor type 2 (n=6)
# [2] = target: T2, Somatostatin receptor type 4 (Homo sapiens, UniProt P31391); experiment: Inhibition of human somatostatin receptor type 4 (n=5)
# [3] = target: T1, Somatostatin receptor type 2; experiment: Inhibition of human somatostatin receptor type 2
# [4] = target: T2, Somatostatin receptor type 4; experiment: Inhibition of human somatostatin receptor type 4
# T1 sequence (P30874 whole entry): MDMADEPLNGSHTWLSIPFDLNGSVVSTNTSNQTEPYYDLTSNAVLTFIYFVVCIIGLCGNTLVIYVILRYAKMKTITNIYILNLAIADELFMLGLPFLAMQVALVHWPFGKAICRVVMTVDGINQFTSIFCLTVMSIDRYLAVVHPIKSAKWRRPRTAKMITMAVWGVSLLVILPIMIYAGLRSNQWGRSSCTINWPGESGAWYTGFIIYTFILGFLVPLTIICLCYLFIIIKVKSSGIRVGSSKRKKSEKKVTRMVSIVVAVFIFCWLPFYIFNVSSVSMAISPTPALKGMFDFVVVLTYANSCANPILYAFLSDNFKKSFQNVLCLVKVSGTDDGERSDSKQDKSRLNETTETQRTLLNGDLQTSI
# T2 sequence (P31391 whole entry): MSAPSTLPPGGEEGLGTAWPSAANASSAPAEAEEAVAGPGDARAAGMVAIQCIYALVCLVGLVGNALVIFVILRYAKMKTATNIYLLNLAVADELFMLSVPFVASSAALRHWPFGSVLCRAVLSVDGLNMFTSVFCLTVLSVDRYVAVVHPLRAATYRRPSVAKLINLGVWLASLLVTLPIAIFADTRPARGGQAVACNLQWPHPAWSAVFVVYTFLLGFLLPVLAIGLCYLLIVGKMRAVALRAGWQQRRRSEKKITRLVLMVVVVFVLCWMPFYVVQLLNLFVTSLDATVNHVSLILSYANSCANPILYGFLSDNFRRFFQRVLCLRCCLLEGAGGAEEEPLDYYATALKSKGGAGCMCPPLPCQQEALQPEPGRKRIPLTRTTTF
SMILES,Ki [1] [µM],Ki [2] [µM],Ki [3] [µM],Ki [4] [µM]
C[C@H](N)C(=O)NCC(=O)N[C@H]1CSSC[C@@H](C(=O)O)NC(=O)[C@H](CO)NC(=O)[C@H]([C@@H](C)O)NC(=O)[C@H](Cc2ccccc2)NC(=O)[C@H]([C@@H](C)O)NC(=O)[C@H](CCCCN)NC(=O)[C@@H](Cc2c[nH]c3ccccc23)NC(=O)[C@H](Cc2ccccc2)NC(=O)[C@H](Cc2cnccn2)NC(=O)[C@H](CC(N)=O)NC(=O)[C@H](CCCCN)NC1=O,0.007,0.077,0.001,0.06
C[C@H](N)C(=O)NCC(=O)N[C@H]1CSSC[C@@H](C(=O)O)NC(=O)[C@H](CO)NC(=O)[C@H]([C@@H](C)O)NC(=O)[C@H](Cc2ccccc2)NC(=O)[C@H]([C@@H](C)O)NC(=O)[C@H](CCCCN)NC(=O)[C@@H](Cc2c[nH]c3ccccc23)NC(=O)[C@H](Cc2cnccn2)NC(=O)[C@H](Cc2ccccc2)NC(=O)[C@H](CC(N)=O)NC(=O)[C@H](CCCCN)NC1=O,–,–,> 1,0.7
C[C@H](N)C(=O)NCC(=O)N[C@H]1CSSC[C@@H](C(=O)O)NC(=O)[C@H](CO)NC(=O)[C@H]([C@@H](C)O)NC(=O)[C@H](Cc2cnccn2)NC(=O)[C@H]([C@@H](C)O)NC(=O)[C@H](CCCCN)NC(=O)[C@@H](Cc2c[nH]c3ccccc23)NC(=O)[C@H](Cc2ccccc2)NC(=O)[C@H](Cc2ccccc2)NC(=O)[C@H](CC(N)=O)NC(=O)[C@H](CCCCN)NC1=O,–,–,0.001,0.124
C[C@H](N)C(=O)NCC(=O)N[C@H]1CSSC[C@@H](C(N)=O)NC(=O)[C@H](CO)NC(=O)[C@H]([C@@H](C)O)NC(=O)[C@H](Cc2ccccc2)NC(=O)[C@H]([C@@H](C)O)NC(=O)[C@H](CCCCN)NC(=O)[C@H](Cc2c[nH]c3ccccc23)NC(=O)[C@H](Cc2ccccc2)NC(=O)[C@H](C)NC(=O)[C@H](CC(N)=O)NC(=O)[C@H](CCCCN)NC1=O (H-AGCKNAFWKTFTSC-NH2; disulfide 3-14),–,–,–,0.08
C[C@H](N)C(=O)NCC(=O)N[C@H]1CSSC[C@@H](C(N)=O)NC(=O)[C@H](CO)NC(=O)[C@H]([C@@H](C)O)NC(=O)[C@H](C)NC(=O)[C@H]([C@@H](C)O)NC(=O)[C@H](CCCCN)NC(=O)[C@H](Cc2c[nH]c3ccccc23)NC(=O)[C@H](Cc2ccccc2)NC(=O)[C@H](Cc2ccccc2)NC(=O)[C@H](CC(N)=O)NC(=O)[C@H](CCCCN)NC1=O (H-AGCKNFFWKTATSC-NH2; disulfide 3-14),–,–,–,< 0.001
